Test results taken from patent publication US8426138B2 (priority 2006, dated 2013).

Key:
β2-adrenergic receptor [1] = target: T1, β2-adrenergic receptor (Homo sapiens, UniProt P07550); assay type: cell-based; conditions: for outcome in high-throughput screen of kinase/phosphatase inhibitor library: library at 3 uM, 384-well plate, duplicate
T1 construct: expressed in transfected cells; host or cells: C2C12 myoblasts (retroviral transduction)

β2-adrenergic receptor [2] = target: T1, β2-adrenergic receptor; assay type: cell-based; conditions: compound applied 30 min before stimulation with 10 uM isoproterenol
Procedure: Assays and cell preparation. […] LysoTracker Red and Texas Red-labeled transferrin were purchased from Molecular Probes. The Kinase/Phosphatase Inhibitor Library was purchased from BIOMOL, and the Mechanistic and Diversity Compound Libraries were provided by the Developmental Therapeutics Program of the National Cancer Institute. Cells were plated and grown to confluency in 96-well white tissue culture dishes (Corning Costar), in 100 μl of growth media. Dose-response curves were generated by adding the respective ligand to the media and incubating for 2 h at 37° C. […] At the end of the described incubation time, Gal-Screen reagent (Buffer B formulation, Applied Biosystems) was used to assay for β-galactosidase activity, according to manufacturer's protocol; media was aspirated from the plate, and 50 μl (or 25 μl for 384-well plates, without prior media aspiration) of Gal-Screen substrate diluted in lysis buffer was added to each well.

[3] = target: Angiotensin II receptor 1a (AT1a) (Mus musculus, UniProt P29754); conditions: 2 hr
Source text: Plasmids. […] Other FYVE domains were generated similarly by RT-PCR^˜. […] To generate a β2AR-eYFP-α construct, the eYFP-α fragment was subcloned into the β2AR-ωplasmid using Xhol and HindIII. The Angiotensin receptor 1a was derived by RT-PCR from C57/BI6 mouse brain RNA using primers for the entire coding sequence, minus the stop codon; it was cloned N-terminally to eYFP-α or ω with MfeI and XhoI. […] Finally, to generate fusion proteins with β-arrestin, the full coding sequence of human β-arrestin B2 was PCR amplified from a cDNA clone and inserted into the Mfel-XhoI sites of the ω and eYFP-α vectors.
Assays and cell preparation. […] LysoTracker Red and Texas Red-labeled transferrin were purchased from Molecular Probes. The Kinase/Phosphatase Inhibitor Library was purchased from BIOMOL, and the Mechanistic and Diversity Compound Libraries were provided by the Developmental Therapeutics Program of the National Cancer Institute. Cells were plated and grown to confluency in 96-well white tissue culture dishes (Corning Costar), in 100 μl of growth media. Dose-response curves were generated by adding the respective ligand to the media and incubating for 2 h at 37° C. […]

T1 sequence (P07550 whole entry, species assumed): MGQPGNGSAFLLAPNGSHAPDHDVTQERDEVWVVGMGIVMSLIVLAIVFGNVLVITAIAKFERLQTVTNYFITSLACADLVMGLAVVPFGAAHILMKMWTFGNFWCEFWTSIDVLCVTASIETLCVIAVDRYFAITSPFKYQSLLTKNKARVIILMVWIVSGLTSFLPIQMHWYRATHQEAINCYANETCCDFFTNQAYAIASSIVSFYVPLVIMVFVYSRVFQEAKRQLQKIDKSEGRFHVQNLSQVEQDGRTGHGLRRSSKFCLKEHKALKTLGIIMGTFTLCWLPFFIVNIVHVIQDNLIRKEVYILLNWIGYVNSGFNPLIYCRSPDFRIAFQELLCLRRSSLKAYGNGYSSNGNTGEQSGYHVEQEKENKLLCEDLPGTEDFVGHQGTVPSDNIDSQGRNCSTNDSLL

Molecule: O=CN/C=C/c1cc(O)ccc1O [erbstatin]
- outcome in high-throughput screen of kinase/phosphatase inhibitor library (β2-adrenergic receptor [1]): inhibitors of internalization

Molecule: CN[C@@H]1C[C@H]2O[C@@](C)([C@@H]1OC)n1c3ccccc3c3c4c(c5c6ccccc6n2c5c31)C(=O)NC4 [staurosporine]
- outcome in high-throughput screen of kinase/phosphatase inhibitor library (β2-adrenergic receptor [1]): inhibitors of internalization

Molecule: COC[C@H]1OC(=O)c2coc3c2[C@@]1(C)C1=C(C3=O)[C@@H]2CCC(=O)[C@@]2(C)C[C@H]1OC(C)=O [wortmannin]
- inhibition, internalization assay (β2-adrenergic receptor [1]): approximately 90%
- inhibition of activation (β2-adrenergic receptor [2]): approximately 50%

Molecule: angiotensin II
- increase in activity, internalization assay [3]: 4 fold
- increase in enzyme activity, arrestin-binding activation assay [3]: 8.5 fold
